Measurements taken from patent publication US9896421B2, “Compound having skin-whitening, anti-oxidizing and PPAR activities and medical use thereof” (Pusan National University Industry-University Cooperation …, priority 2011, dated 2018).

Tests used:
[1] = test system: ROS generated by vascular endothelial cells (YPEN-1); experiment: In vitro ROS scavenging activity assay (DCFDA) in YPEN-1 vascular endothelial cells; format: cell-based, rat; conditions: YPEN-1 cells pre-treated with 50 μM SIN-1 for 1 hour; DCFDA fluorescence; compared with trolox (positive control); FIGS. 1 to 3
Method: YPEN-1 cells (rat prostatic endothelial cell line) was obtained from American type culture collection (ATCC, Manassas, Va., USA), and the cells were cultured by using a dulbecco's modified eagle medium (DMEM, Nissui, Tokyo, Japan) containing 2 mM L-glutamine, […], 2.5 mg/L amphotericin B, and 5% inactivated fetal bovine serum (FBS). Also, the cells were maintained at a temperature of 37° C. in a humid atmosphere-like condition containing 5% CO2 and 95% air. […] The cells were sub-cultured in 100 mm plastic flask (Corning Co., New York, USA) every two days to maintain the cell line.
Since the oil-soluble DCFDA was deacetylated into non-fluorescent DCFH due to esterase or oxidative hydrolysis and the DCFH was oxidized due to activity oxgyen to produce highly-fluorescent 2′,7′-dichlorofluorescein (DCF), the present measurement was performed at an excitation wavelength of 485 nm and an emission wavelength of 530 nm by using a fluorophotometer (GENios, TECAN). Vascular endothelial cells that were pre-treated with 50 μM 3-morpholinosydnonimine hydrochloride (SIN-1) for 1 hour were used as a reactive oxygen generation source.

[2] = test system: Mushroom-derived tyrosinase; experiment: Tyrosinase inhibitory effect; format: biochemical; conditions: 1 mM L-tyrosin, pH 6.5, 25° C., 30 minutes, OD492; compared with kojic acid (positive control); FIGS. 4 to 6
Method: Mushroom-derived tyrosinase was sued as an enzyme source in the present experiment. Tyrosinase activities were assayed according to a slightly-modified conventionally known method (Life Sci., 1999, 65, 241-246). In detail, 20 μl of a mushroom-derived tyrosinase (1000 units) aqueous solution was added to 96-well microplate (Nunc, Denmark) to prepare 200 μl of the total volume of assay mixture containing 1 mM L-tyrosin solution and 50 mM phosphate buffer solution (pH 6.5). The assay mixture was cultured at a temperature of 25° C. for 30 minutes. After the culturing, an amount of the produced DOPA chrome in the reaction mixture was measured by using a microplate reader (Hewlett Packard) at 492 nm (OD492).

Structure (SMILES)	melting point [°C]	scavenging effects on ROS generated by vascular endothelial cells [1]	tyrosinase inhibitory activities [2]
CCOc1cc(/C=C2\NC(=S)NC2=O)ccc1O [Compound 102, (Z)-5-(3-ethoxy-4-hydroxybenzylidene)-2-thioxoimidazolidin-4-one]	175.4 to 177.2	as high scavenging effects on ROS generated by vascular endothelial cells as trolox	–
COc1ccc(/C=C2\SC(=O)NC2=O)cc1O [Compound 6, (Z)-5-(3-hydroxy-4-methoxybenzylidene)thiazolidine-2,4-dione]	254 to 257.6	–	better tyrosinase inhibitory activities than a kojic acid
COc1cc(/C=C2\NC(=S)NC2=O)cc(OC)c1O [Compound 110, (Z)-5-(4-hydroxy-3,5-dimethoxybenzylidene)-2-thioxoimidazolidin-4-one]	240.1 to 242.6	as high scavenging effects on ROS generated by vascular endothelial cells as trolox	–
O=C1NC(=S)N/C1=C\c1ccc(O)cc1O [Compound 100, (Z)-5-(2,4-dihydroxybenzylidene)-2-thioxoimidazolidin-4-one]	> 300	as high scavenging effects on ROS generated by vascular endothelial cells as trolox	–
COc1ccc(/C=C2\SC(=S)NC2=O)cc1O [Compound 66, (Z)-5-(3-hydroxy-4-methoxybenzylidene)-2-thioxothiazolidin-4-one]	210.2 to 212.5	–	better tyrosinase inhibitory activities than a kojic acid
O=C1NC(=S)N/C1=C\c1cc(O)cc(O)c1 [Compound 106, (Z)-5-(3,5-dihydroxybenzylidene)-2-thioxoimidazolidin-4-one]	> 300	as high scavenging effects on ROS generated by vascular endothelial cells as trolox	–
O=C1C/C(=C\c2ccc(O)cc2O)C(=O)N1 [Compound 38, (E)-3-(2,4-dihydroxybenzylidene)pyrrolidine-2,5-dione]	> 300	–	better tyrosinase inhibitory activities than a kojic acid
COc1cc(/C=C2\N=C(C)OC2=O)cc(OC)c1OC(C)=O [Compound 95, (Z)-2,6-dimethoxy-4-((2-methyl-5-oxooxazol-4(5H)-ylidene)methyl)phenyl acetate]	–	as high scavenging effects on ROS generated by vascular endothelial cells as trolox	–
COc1ccc(/C=C2\CC(=O)NC2=O)cc1O [Compound 41, (E)-3-(3-hydroxy-4-methoxybenzylidene)pyrrolidine-2,5-dione]	268.7 to 270.3	–	better tyrosinase inhibitory activities than a kojic acid
O=C1C/C(=C\c2ccc(O)cc2)C(=O)N1 [Compound 36, (E)-3-(4-hydroxybenzylidene)pyrrolidine-2,5-dione]	> 300	–	better tyrosinase inhibitory activities than a kojic acid
COc1ccc(/C=C2\NC(=O)NC2=O)cc1O [Compound 29, (Z)-5-(3-hydroxy-4-methoxybenzylidene)imidazolidine-2,4-dione]	250.7 to 253.4	–	better tyrosinase inhibitory activities than a kojic acid
COc1ccc(/C=C2\NC(=S)NC2=O)cc1O [Compound 103, (Z)-5-(3-hydroxy-4-methoxybenzylidene)-2-thioxoimidazolidin-4-one]	279.6 to 282.2	–	better tyrosinase inhibitory activities than a kojic acid
COc1cc(/C=C2\NC(=S)NC2=O)ccc1O [Compound 101, (Z)-5-(4-hydroxy-3-methoxybenzylidene)-2-thioxoimidazolidin-4-one]	–	as high scavenging effects on ROS generated by vascular endothelial cells as trolox	–
O=C1NC(=O)C(=Cc2ccc(O)cc2O)C(=O)N1 [Compound 16, 5-(2,4-dihyroxybenzylidene)pyrimidine-2,4,6(1H,3H,5H)-trione]	–	–	better tyrosinase inhibitory activities than a kojic acid
